Earlier results as cited in patent publication US6355677B1, “Adrenoleukodystrophy treatments and drug screening” (The Johns Hopkins University, priority 1998, dated 2002).

Experiments:
[1] = active ingredient of Lorenzo oil; cited from earlier work
[2] = in rats; cited from earlier work

SMILES: CCCCCCCC/C=C\CCCCCCCCCCCC(=O)O [erucic acid]
- Brain entry [1]: does not get into the brain

SMILES: O=C(O)Cc1ccccc1 [phenylacetate]
- Blood-brain barrier passage [2]: can cross the blood-brain barrier
